Data on 40 compounds can be found in patent publication US11512053B2, “Arginine methyltransferase inhibitors and uses thereof” (priority 2013, dated 2022).

Assay [1] concerns mono-methyl arginine in RKO cells. As to the kind of experiment: RKO Methylation Assay, In Cell Western (ICW) for detection of mono-methyl arginine and DNA content. The format is cell-based. To be noted: for EC30: Homo sapiens, RKO, 72 h. The method in brief:
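RKO cells were treated with compound for 72 hours at 37 °C, methanol-fixed and stained overnight at 4 °C with anti-mono-methyl arginine (1:200), with DRAQ5 for DNA. Odyssey 800/700 nm intensity ratio was normalized to DMSO and 20 μM reference-compound controls. EC30 from triplicate nine-point curves.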

Assay [2] deals with full-length human PRMT8 isoform 1 (Homo sapiens, UniProt Q9NR22). As to the kind of experiment: PRMT8 Biochemical Assay (3H-SAM Flashplate, peptide substrate). To be noted: read-out: Biochemical IC50 PRMT8. The method in brief:
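Scintillation Flashplate capture of biotinylated histone H4 (31-45) peptide (150 nM) methylated by 1.5 nM PRMT8 using 3H-SAM (50 nM) with unlabelled SAM (550 nM); enzyme and compound preincubated 30 min, room temperature, in Bicine pH 7.6 buffer with TCEP, BSG, Tween 20 and 2% DMSO. Stopped with excess cold SAM (400 uM); IC50 from % inhibition, min control 1 mM SAH.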

Setting [3] is: RKO cells, 72 hours incubation, mono-methyl arginine signal normalised to DNA content, single experiment or average of multiple experiments, read-out: In Cell Western EC30.
Where [4] appears, read: RKO cells, 72 hours compound incubation, mono-methyl arginine signal normalised to DNA content (DRAQ5), percent activation vs 20 μM reference compound.
[5] abbreviates: single experiment or average of multiple experiments.
Where [6] appears, read: RKO cells, 72 hours compound incubation, mono-methyl arginine signal normalised to DNA content (DRAQ5), percent activation vs 20 μM reference compound, read-out: In Cell Western EC30.

Each structure is given as a SMILES string. Where a name gives a salt, the structure may show the parent alone. Read-outs that look alike come from different tables or passages of the source.

full-length human PRMT8 isoform 1, sequence (Q9NR22 whole entry, canonical isoform): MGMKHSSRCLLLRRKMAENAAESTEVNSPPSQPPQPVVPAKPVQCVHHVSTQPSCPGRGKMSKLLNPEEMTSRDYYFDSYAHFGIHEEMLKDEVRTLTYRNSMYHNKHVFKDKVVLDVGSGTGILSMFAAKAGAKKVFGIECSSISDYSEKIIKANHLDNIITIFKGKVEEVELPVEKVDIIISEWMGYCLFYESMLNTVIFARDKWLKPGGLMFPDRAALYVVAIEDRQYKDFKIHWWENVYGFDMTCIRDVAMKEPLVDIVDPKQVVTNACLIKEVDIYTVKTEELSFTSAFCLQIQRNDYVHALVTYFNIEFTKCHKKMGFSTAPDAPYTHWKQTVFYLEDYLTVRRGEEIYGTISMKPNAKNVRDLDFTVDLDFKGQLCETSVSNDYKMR

Take `CC1CCC(c2n[nH]cc2CN(C)CCN)CC1` (stereo not shown) [Compound 37, N^1-methyl-N^1-((3-(4-methylcyclohexyl)-1H-pyrazol-4-yl)methyl)ethane-1,2-diamine]: the EC30 (usually the concentration at which the effect reaches the 30% level) in assay [1] (setting [3]) came to 260 nM. In addition, the “In Cell Western EC30” value in assay [1] (setting [4]) is reported as “A (“A” indicates an EC30 ≤ 3.00 μM)”. In assay [2] (setting [5]), the IC50 – broadly, the concentration that inhibits the measured activity by half – was determined as 130 nM. For `CN(CCN)Cc1n[nH]cc1C1CCC(C)(C)CC1` [Compound 36], in that order: 630 nM, “A (“A” indicates an EC30 ≤ 3.00 μM)” and 280 nM. Regarding `CNCCN(C)Cc1c[nH]nc1C1CCC(OC(C)C)CC1` (stereo not shown) [Compound 56], the EC30 in assay [1] (setting [3]) is 96 nM. The IC50 in assay [2] (setting [5]) stood at 32 nM. Take `CNCCN(C)Cc1c[nH]nc1C#Cc1cccc(OC)c1` [Compound 1]: the IC50 in assay [2] (setting [5]) stood at 390 nM.

In the case of `CNCCN(C)Cc1c[nH]nc1C1CCC2(CC1)CC(C)OC(C)C2` (stereo not shown) [Compound 63], the concentration for an effect of 30% (EC30) in assay [1] (setting [6]) was less than 3000 nM; in assay [1] (setting [3]) it was 1090 nM. Also, the results for the IC50 in assay [2] and in assay [2] (setting [5]) were less than 100 nM and 12 nM, respectively. Regarding `CN(CCN)Cc1c[nH]nc1/C=C/c1cccc(F)c1` [Compound 20], the IC50 in assay [2] (setting [5]) was determined as 470 nM. As to `CN(CCN)Cc1c[nH]nc1CCc1ccc(F)cc1` [Compound 23, N^1-((3-(4-fluorophenethyl)-1H-pyrazol-4-yl)methyl)-N^1-methylethane-1,2-diamine], the 30% effect concentration (EC30) in assay [1] (setting [3]) came to 1610 nM. Further, in assay [1] (setting [4]), the “In Cell Western EC30” value is recorded as “A (“A” indicates an EC30 ≤ 3.00 μM)”. Besides, in assay [2] (setting [5]), the IC50 worked out at 280 nM. As for `CN(CCN)Cc1c[nH]nc1C1CCC2(CCCC2)CC1` [Compound 45], the figures for the EC30 in assay [1] (setting [6]) and in assay [1] (setting [3]) were less than 3000 nM and 54 nM, respectively. Further, the concentration for half-maximal inhibition (IC50) in assay [2] (setting [5]) was 5.3 nM. As for `CNCCN(C)Cc1c[nH]nc1C1CCC(C)(C)C(COCC(C)C)C1` (stereo not shown) [Compound 95], the EC30 in assay [1] (setting [6]) was less than 3000 nM; in assay [1] (setting [3]), 122 nM. For the same compound, the IC50 in assay [2] is less than 100 nM; in assay [2] (setting [5]), 18.9 nM.

On to `CNCCN(C)Cc1ccnn1C1CCC2(CC1)CC(C)(C)CO2` (stereo not shown) [Compound 274, trifluoroacetate], for which the EC30 is less than 3000 nM in assay [1] (read-out: In Cell Western EC30, RKO cells, 72 hours compound incubation, mono-methyl arginine signal normalised to DNA content (DRAQ5), percent activation vs 20 μM reference compound) and 16.8 nM in assay [1] (read-out: In Cell Western EC30, RKO cells, 72 hours incubation, mono-methyl arginine signal normalised to DNA content, single experiment or average of multiple experiments). Moreover, the IC50 in assay [2] is less than 100 nM; in assay [2] (setting [5]), 11.9 nM.

For `CNCCN(C)Cc1c[nH]nc1C1CCN(C(=O)C(C)C)CC1` [Compound 34], in assay [1] (setting [3]), the EC30 came out at 1150 nM. Besides, the “In Cell Western EC30” value in assay [1] (setting [4]) is “A (“A” indicates an EC30 ≤ 3.00 μM)”. In assay [2] (setting [5]), the concentration for half-maximal inhibition (IC50) was found to be 440 nM. With `CNCCN(C)Cc1c[nH]nc1C1CCN(C(=O)CC(C)C)CC1` [Compound 40, 3-methyl-1-(4-(4-((methyl(2-(methylamino)ethyl)amino)methyl)-1H-pyrazol-3-yl)piperidin-1-yl)butan-1-one], the EC30 is less than 3000 nM in assay [1] (setting [6]) and 870 nM in assay [1] (setting [3]). Also, the half-maximal inhibitory concentration (IC50) in assay [2] (setting [5]) stood at 7010 nM. Consider `CNCCN(C)Cc1c[nH]nc1C1CCC2(CCCO2)CC1` (stereo not shown) [Compound 51], for which the concentration for an effect of 30% (EC30) in assay [1] (setting [6]) was less than 3000 nM; in assay [1] (setting [3]) it was 52 nM. In addition, the IC50 in assay [2] (setting [5]) was 21.4 nM. With `CNCCN(C)Cc1cnn(C)c1C1CCC2(CCCC2)CC1` [Compound 49], the EC30 in assay [1] (setting [3]) stood at 50 nM. In addition, in assay [2] (setting [5]), the IC50 turned out to be 7.3 nM. As to `CNCCN(C)Cc1c[nH]nc1C1CCN(CC(C)C)CC1` [Compound 39, N^1-((3-(1-isobutylpiperidin-4-yl)-1H-pyrazol-4-yl)methyl)-N^1,N^2-dimethylethane-1,2-diamine], the concentration for an effect of 30% (EC30) in assay [1] (setting [3]) is 500 nM. Besides, the “In Cell Western EC30” value in assay [1] (setting [4]) was “A (“A” indicates an EC30 ≤ 3.00 μM)”. The IC50 in assay [2] (setting [5]) is 360 nM. Turning to `CN(CCN)Cc1c[nH]nc1/C=C/c1ccc(F)cc1F` [Compound 13], in assay [2] (setting [5]), the IC50 came to 300 nM.

Regarding `CNCCN(C)Cc1c[nH]nc1C1CC(C)(C)OC(C)(C)C1` [Compound 59], the EC30 in assay [1] (setting [3]) amounted to 357 nM. Moreover, the IC50 in assay [2] (setting [5]) amounted to 48.4 nM. With `CNCCN(C)Cc1c[nH]nc1[C@@H]1CCC(C)(C)[C@@H](C(=O)NCCCOC)C1` [Compound 271, (1S,5R)—N-(3-methoxypropyl)-2,2-dimethyl-5-[4-({methyl[2-(methylamino)ethyl]amino}methyl)-1H-pyrazol-3-yl]cyclohexane-1-carboxamide], the IC50 in assay [2] is less than 100 nM; in assay [2] (setting [5]), 100 nM. Taken in the same sequence, the figures for `CNCCN(C)Cc1c[nH]nc1C1CCC(C)(C)C(C(=O)NCCCOC)C1` (stereo not shown) [Compound 93] were less than 100 nM and 88.1 nM. In the case of `CNCCN(C)Cc1c[nH]nc1/C=C/c1ccc(OC)cc1` [Compound 7], the half-maximal inhibitory concentration (IC50) in assay [2] (setting [5]) stood at 520 nM. Turning to `CN(CCN)Cc1c[nH]nc1/C=C/Cc1ccccc1` [Compound 24], in assay [1] (setting [3]), the EC30 was found to be 2400 nM. In addition, the “In Cell Western EC30” value in assay [1] (setting [4]) was “A (“A” indicates an EC30 ≤ 3.00 μM)”. For the same compound, the IC50 in assay [2] (setting [5]) was 300 nM. With `CNCCN(C)Cc1c[nH]nc1C#Cc1ccc(F)cc1` [Compound 4], the half-maximal inhibitory concentration (IC50) in assay [2] (setting [5]) came to 590 nM. Same read-out and setting: the same measure for `COC/C=C/c1n[nH]cc1CN(C)CCN` [Compound 19]: 2300 nM.

Take `CNCCN(C)Cc1c[nH]nc1C1CCC(COC(C)C)(COC(C)C)CC1` [Compound 61]: the EC30 in assay [1] (setting [6]) is less than 3000 nM; in assay [1] (setting [3]), 149 nM.

`CN(CCN)Cc1c[nH]nc1/C=C/c1ccc(C(F)(F)F)cc1` [Compound 18]: the IC50 in assay [2] (setting [5]) turned out to be 40 nM.

As to `COc1cc(/C=C/c2n[nH]cc2CN(C)CCN)cc(OC)c1` [Compound 11], the IC50 in assay [2] (setting [5]) came to 250 nM. For the compound `CNCCN(C)Cc1c[nH]nc1[C@@H]1CCC(C)(C)[C@@H](C(=O)NCCOC)C1` [Compound 269], the figures for the 50% inhibitory concentration (IC50) in assay [2] and in assay [2] (setting [5]) were 101 to 1000 nM and 155 nM, respectively. In the case of `CNCCN(C)Cc1c[nH]nc1C#Cc1ccc(C(C)(C)C)cc1` [Compound 2], the IC50 in assay [2] (setting [5]) was determined as 170 nM. With `CNCCN(C)Cc1c[nH]nc1/C=C/c1ccc(C(F)(F)F)cc1` [Compound 6], the IC50 in assay [2] (setting [5]) was 240 nM. `CNCCN(C)Cc1c[nH]nc1[C@H]1CCC(C)(C)[C@@H](C(=O)NCCOC)C1` [Compound 268]: the IC50 is 101 to 1000 nM in assay [2] and 210 nM in assay [2] (setting [5]). With `COc1cccc(/C=C/c2n[nH]cc2CN(C)CCN)c1` [Compound 17], the 50% inhibitory concentration (IC50) in assay [2] (setting [5]) was 410 nM. On the same count and under the same terms, for `CN(CCN)Cc1c[nH]nc1/C=C/c1cccc(C(F)(F)F)c1` [Compound 16] the value was 690 nM. In the case of `CNCCN(C)Cc1c[nH]nc1C1CCC(C)(C)[C@H](OCC2CCOCC2)C1` (stereo partly drawn) [Compound 273, ({3-[(3R)-4,4-dimethyl-3-(oxan-4-ylmethoxy)cyclohexyl]-1H-pyrazol-4-yl}methyl)(methyl)[2-(methylamino)ethyl]amine], the half-maximal inhibitory concentration (IC50) was less than 100 nM in assay [2] and 22.6 nM in assay [2] (setting [5]). For `CNCCN(C)Cc1c[nH]nc1[C@H]1CCC(C)(C)[C@@H](C(=O)NCCCOC)C1` [Compound 270], in that order: 101 to 1000 nM and 204 nM. Turning to `CNCCN(C)Cc1c[nH]nc1/C=C/c1ccc(-c2ccccc2)cc1` [Compound 5], the IC50 in assay [2] (setting [5]) was 420 nM.

For `CN(CCN)Cc1c[nH]nc1/C=C/c1cc(F)cc(F)c1` [Compound 15], in assay [2] (setting [5]), the IC50 came to 700 nM. On the same count and under the same terms, the same measure for `Cc1ccc(/C=C/c2n[nH]cc2CN(C)CCN)cc1` [Compound 8]: 360 nM. With `CNCCN(C)Cc1c[nH]nc1C1CCC(C)(C)[C@H](OCCCOC)C1` (stereo partly shown) [Compound 272], the IC50 in assay [2] was less than 100 nM; in assay [2] (setting [5]), 25.8 nM. Taken in the same sequence, the figures for `CN(CCN)Cc1c[nH]nc1C1CC1` [Compound 12] were greater than 10000 nM and greater than 10000 nM. Take `CN(CCN)Cc1c[nH]nc1/C=C/c1cc(C(F)(F)F)cc(C(F)(F)F)c1` [Compound 14]: the IC50 in assay [2] (setting [5]) was found to be 660 nM.
